“Also recorded” adds a separate entry of the source.

Type in all cases: in vivo
The subject of series [1] is small clot embolic strokes in rabbits. The series is described as follows: rabbit small clot embolic stroke model (RSCEM), quantal analysis of behavior. An excerpt:
The invention used a rabbit small clot embolic stroke model (RSCEM) that reproduces many facets of human AIS including a well-defined clinical endpoint. The RSCEM utilizes administration of a suspension of small blood clots to induce strokes, and behavioral deficits that can be measured quantitatively. Moreover, the RSCEM is useful to conduct studies testing the effects of single drugs or drug combinations such as a neuroprotective agent (e.g., NXY-059) plus a thrombolytic (Tenecteplase, Alteplase, Desmoteplase and the like). Since it is likely that a drug combination will be used for patient management it is important to determine whether there are any interactions (positive or negative) between the compounds when administered following embolic strokes.
Methods: Male New Zealand white rabbits were anesthetized using halothane (5% induction, 2% maintenance by facemask), the bifurcation of the right carotid artery was exposed and the external carotid was ligated just distal to the bifurcation, where a catheter was inserted into the common carotid and secured with ligatures. The incision was closed around the catheter with the distal ends left accessible outside the neck; the catheter was filled with heparinized saline and plugged with an injection cap. Rabbits were allowed to recover from anesthesia for a minimum of 3 h until they awoke and behaved normally.
For the RSCEM, microclots were prepared from blood drawn from a donor rabbit and allowed to clot at 37° C. All rabbits in the study received injections of the same sized microclots. For embolization, clot particles were rapidly injected through the carotid catheter and both the syringe and catheter were flushed with 5 ml of normal saline.
Treatment Regimens: (A) Dose-Response Curve: NXY-059 was administered IV at a dose of 0.1-100 mg/kg infused over 30 min beginning 1 hour following embolization. (B) Therapeutic Window: NXY-059 (100 mg/kg) was given beginning 1, 3 or 6 hours following embolization. (C) Tenecteplase Dosing: Tenecteplase was administered IV at a dose of 0.9 mg/kg as a bolus injection given over one minute was administered 1 or 6 hours following embolization. (D) Combination studies: NXY-059 was administered IV at a dose of 100 mg/kg infused over 30 min and Tenecteplase was administered IV at a dose of 0.9 mg/kg beginning 1 or 6 hours following embolization.
Quantal Dose-Response Analysis: For the RSCEM, a quantal dose-response data analysis technique was used. A wide range of lesion volumes is induced to generate both normal and abnormal animals. Using 3 or more different doses of microclots generated each quantal analysis curve. […] Each animal is rated as either normal or abnormal (including dead animals), and inter-rater variability is very low (<5%). […] With this simple rating system, the composite result for a group of animals is quite reproducible. The P50 values are then calculated. These parameters are measures of the amount of microclots (in mg) that produce neurologic dysfunction in 50% of a group of animals. A separate curve is generated for each treatment condition that was tested. The data were analyzed using the t-test, which included the Bonferroni correction where appropriate.
Using the RSCEM model as described above male New Zealand white rabbits weighing 2.2-2.6 Kg were anesthetized and a catheter was inserted into the common carotid artery through which microclots were injected. Briefly, the bifurcation of one carotid artery was exposed and the external carotid was ligated just distal to the bifurcation. A catheter was inserted into the common carotid and secured with ligatures. The incision was closed around the catheter so that the distal end was accessible outside the animal's neck. The catheter was then filled with heparinized saline and plugged with an injection cap. Rabbits were allowed to recover from anesthesia until they were awake and behaving normally. […]

For series [2] the test system is unchanged. The description is as above. The settings on record: for Observation: ABHS 25 mg/kg IV; for Abnorm / Norm: ABHS 25 mg/kg, 5 min.
Series [3] deals with spinal cord ischemia induced by temporary occlusion of the infrarenal aorta. Description: rabbit reversible spinal cord ischemia model (RSCIM). As to the method:
In a rabbit reversible spinal cord ischemia model (RSCIM). ABHS was administered (25 mg/kg) intravenously (i.v.) 5 or 30 min following the start of occlusion to groups of rabbits exposed to ischemia induced by temporary occlusion of the infrarenal aorta. The group P50 represents the duration of ischemia (min) associated with a 50% probability of resultant permanent paraplegia.

[4] abbreviates: ABHS 25 mg/kg, 5 min, clot dose 0.38 mg.

As to Tenecteplase, the P50 in series [1] (Tenecteplase 0.9 mg/kg IV bolus, 1 hour following embolization, 24 hours) is 2.76 ± 0.37 mg. In addition, the “increase of P50 over control” value in series [1] (Tenecteplase 0.9 mg/kg, 1 hour following embolization) is on record as 130%. Moreover, the “effect on P50 vs control” value in series [1] (Tenecteplase 0.9 mg/kg, 6 hours following embolization) was “did not increase the P50 compared to control; also recorded: neither Tenecteplase, nor NXY-059, significantly (p>0.05) affect P50 values”.

In the case of `CC12CC3CC(C)(C1)CC(N)(C3)C2` [memantine], the “effect on efficacy of low-dose tPA” value in series [1] (FIG. 8) is recorded as “increases the efficacy of low-dose tPA”.

As to `CC(C)(C)[N+]([O-])=Cc1ccc(S(=O)(=O)O)cc1S(=O)(=O)O.[Na].[Na]` [NXY-059, disodium 2,4-disulfophenyl-N-tert-butylnitrone], the P50 in series [1] (NXY-059 100 mg/kg, 6 hours following embolization, not significant vs vehicle) came out at 1.35 ± 0.37 mg. The “effect on P50 vs vehicle” value is “significantly increased the P50” in series [1] (NXY-059 doses from 1-100 mg/kg, 1 hour following embolization, p<0.05) and “did not” in series [1] (NXY-059 lower dose (0.10 mg/kg), 1 hour following embolization, p>0.05).

For `CC(=O)[C@H]1CC[C@H]2[C@@H]3CC[C@@H]4C[C@H](OC(=O)CCC(=O)O)CC[C@]4(C)[C@H]3CC[C@]12C` [ABHS, 3-alpha-ol-5-beta-pregnan-20-one hemisuccinate], the Observation result in series [2] (5 min following embolization) is given as “Sedation”; in series [2] (180 min following embolization), “Sedation”; in series [1] (ABHS 25 mg/kg IV, 60 min following embolization), “Sedation”. For the same molecule, the Abnorm in series [2] (clot dose 0.53 mg) was determined as 0; in series [2] (clot dose 1.42 mg), 0; in series [2] (clot dose 1.60 mg), 0; in series [2] (clot dose 1.72 mg), 0; in series [2] (clot dose 2.31 mg), 0; in series [2] (clot dose 2.89 mg), 1. For the same molecule, the Abnorm in series [2] (clot dose 2.97 mg) worked out at 0; in series [2] (clot dose 3.38 mg), 1; in series [2] (clot dose 3.88 mg), 1; in series [2] (clot dose 4.67 mg), 0; in series [1] (ABHS 25 mg/kg, 5 min, clot dose 1.99 mg), 1; in series [1] (ABHS 25 mg/kg, 5 min, clot dose 2.21 mg), 1. In series [1] (ABHS 25 mg/kg, 5 min, clot dose 4.35 mg), the Abnorm came to 1. Further, the Norm in series [2] (clot dose 0.53 mg) was 1; in series [2] (clot dose 1.42 mg), 1; in series [2] (clot dose 1.60 mg), 1; in series [2] (clot dose 1.72 mg), 1; in series [2] (clot dose 1.99 mg) it was 0; in series [2] (clot dose 2.21 mg), 0. The Norm is given as 1 in series [2] (clot dose 2.31 mg); 0 in series [2] (clot dose 2.89 mg); 0 in series [2] (clot dose 3.38 mg); 0 in series [2] (clot dose 3.88 mg); 0 in series [2] (clot dose 4.35 mg); 1 in series [2] (clot dose 4.67 mg). In addition, the Norm in series [1] (ABHS 25 mg/kg, 5 min, clot dose 2.97 mg) was 1. For the same molecule, the “effect on tolerance to ischemia” value in series [3] (ABHS administered 30 min following the start of occlusion) is “increased the tolerance to ischemia”. Besides, the “persistence of effect” value in series [3] (ABHS injected 5 min following the start of ischemia and again 24 h after ischemia) is on record as “persistent effect of the drug at 48 h”. Besides, in series [1] (setting [4]), the “Abnorm (rabbits rated behaviorally abnormal)” value came out at 0. The “Norm (rabbits rated behaviorally normal)” value in series [1] (setting [4]) is 1. In series [1] (FIG. 7), the “effect on therapeutic window of tPA” value is on record as “increases the therapeutic window for tPA”.

These data come from US20070167419A1, “TREATMENT FOR EMBOLIC STROKE” (priority 2005, published 2007).
